According to patent publication US11505543B2, “4-oxo-3,4-dihydroquinazoline compounds as inhibitors of human immunodeficiency virus replication” (VIIV HEALTHCARE UK (NO.5) LIMITED, priority 2018, dated 2022):

Legend:
[1] = Compound cytotoxicity, XTT-based colorimetric assay; format: cell-based; conditions: human, uninfected MT2 cells, day 4, XTT
Procedure, shortened: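 Run under the antiviral-assay protocol but without virus. Viability was read on day 4 and CC50 values were derived from the readout.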

[2] = tested on: recombinant NL4-3 virus (nef section replaced with Renilla luciferase gene) in MT-2 cells; test: HIV cell culture assay (antiviral activity, luciferase readout); format: cell-based; conditions: Renilla, NL43, MT-2 cells infected for 4-5 days with recombinant NL4-3 Renilla luciferase virus, serial dilutions of compound
Procedure, shortened: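 EC50 was derived by median-effect curve fitting of luciferase activity. The signal comes from MT-2 cells infected for 4–5 days with 293T-produced NL4-3 reporter virus, nef partly replaced by Renilla luciferase, in the presence of serially diluted compound.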

SMILES | CC50 at 4 day [1] [nM] | EC50 [2] [nM]
Cn1nc(NS(C)(=O)=O)c2c(Cl)ccc(-n3c([C@H](Cc4cc(F)cc(F)c4)NC(=O)Cn4nc(C(F)F)c5c4C(F)(F)[C@@H]4C[C@H]54)nc4cc(-c5ccc(F)cc5F)ccc4c3=O)c21 [Example 187, N-((S)-1-(3-(4-chloro-1-methyl-3-(methylsulfonamido)-1H-indazol-7-yl)-7-(2,4-difluorophenyl)-4-oxo-3,4-dihydroquinazolin-2-yl)-2-(3,5-difluorophenyl)ethyl)-2-((3bS,4aR)-3-(difluoromethyl)-5,5-difluoro-3b,4,4a,5-tetrahydro-1H-cyclopropa[3,4]cyclopenta[1,2-c]pyrazol-1-yl)acetamide] | > 1000 | 0.28
Cc1cc(F)ccc1-c1ccc2c(=O)n(-c3ccc(Cl)c4c(NS(C)(=O)=O)nn(C)c34)c([C@H](Cc3cc(F)cc(F)c3)NC(=O)Cn3nc(C(F)F)c4c3C(F)(F)[C@@H]3C[C@H]43)nc2c1 [Example 188, N-((S)-1-(3-(4-chloro-1-methyl-3-(methylsulfonamido)-1H-indazol-7-yl)-7-(4-fluoro-2-methylphenyl)-4-oxo-3,4-dihydroquinazolin-2-yl)-2-(3,5-difluorophenyl)ethyl)-2-((3bS,4aR)-3-(difluoromethyl)-5,5-difluoro-3b,4,4a,5-tetrahydro-1H-cyclopropa[3,4]cyclopenta[1,2-c]pyrazol-1-yl)acetamide] | > 1000 | 1.7
O=C(Cn1nc(C(F)F)cc1C(F)F)N[C@@H](Cc1cc(F)cc(F)c1)c1nc2cc(-c3ncccn3)ccc2c(=O)n1-c1ccc(Cl)c2c(NS(=O)(=O)C3CC3)nn(CC(F)F)c12 [Example 189, (S)-2-(3,5-bis(difluoromethyl)-1H-pyrazol-1-yl)-N-(1-(3-(4-chloro-3-(cyclopropanesulfonamido)-1-(2,2-difluoroethyl)-1H-indazol-7-yl)-4-oxo-7-(pyrimidin-2-yl)-3,4-dihydroquinazolin-2-yl)-2-(3,5-difluorophenyl)ethyl)acetamide] | > 500 | 1.3
O=C(Cn1nc(C(F)F)cc1C(F)F)N[C@@H](Cc1cc(F)cc(F)c1)c1nc2cc(-c3ccccn3)ccc2c(=O)n1-c1ccc(Cl)c2c(NS(=O)(=O)C3CC3)nn(CC(F)F)c12 [Example 190, (S)-2-(3,5-bis(difluoromethyl)-1H-pyrazol-1-yl)-N-(1-(3-(4-chloro-3-(cyclopropanesulfonamido)-1-(2,2-difluoroethyl)-1H-indazol-7-yl)-4-oxo-7-(pyridin-2-yl)-3,4-dihydroquinazolin-2-yl)-2-(3,5-difluorophenyl)ethyl)acetamide] | > 500 | 2.1
Cc1nccnc1-c1ccc2c(=O)n(-c3ccc(Cl)c4c(NS(=O)(=O)C5CC5)nn(CC(F)F)c34)c([C@H](Cc3cc(F)cc(F)c3)NC(=O)Cn3nc(C(F)F)cc3C(F)F)nc2c1 [Example 191, (S)-2-(3,5-bis(difluoromethyl)-1H-pyrazol-1-yl)-N-(1-(3-(4-chloro-3-(cyclopropanesulfonamido)-1-(2,2-difluoroethyl)-1H-indazol-7-yl)-7-(3-methylpyrazin-2-yl)-4-oxo-3,4-dihydroquinazolin-2-yl)-2-(3,5-difluorophenyl)ethyl)acetamide] | > 500 | 1.5
Cn1nc(NS(C)(=O)=O)c2c(Cl)ccc(-n3c([C@H](Cc4cc(F)cc(F)c4)NC(=O)Cn4nc(C(F)F)c5c4C(F)(F)[C@@H]4C[C@H]54)nc4cc(-c5ccc(C(C)(C)C)cc5)ccc4c3=O)c21 [Example 192, N-((S)-1-(7-(4-(tert-butyl)phenyl)-3-(4-chloro-1-methyl-3-(methylsulfonamido)-1H-indazol-7-yl)-4-oxo-3,4-dihydroquinazolin-2-yl)-2-(3,5-difluorophenyl)ethyl)-2-((3bS,4aR)-3-(difluoromethyl)-5,5-difluoro-3b,4,4a,5-tetrahydro-1H-cyclopropa[3,4]cyclopenta[1,2-c]pyrazol-1-yl)acetamide] | > 1000 | 5.1
